Measurements taken from US11642332B2, “(2R,4R)-5-(5′-chloro-2′-fluorobiphenyl-4-yl)-2-hydroxy-4-[(5-methyloxazole-2-carbonyl)amino]pentanoic acid” (THERAVANCE BIOPHARMA R&D IP, LLC, priority 2015, dated 2023).
Where two headings read alike, the source gives them in different places.

Experiments:
[1] = molecular target: T1, NEP (Rattus norvegicus, UniProt P07861); assay: PK-PD assay for NEP activity in conscious normotensive Sprague-Dawley rats (plasma cGMP after ANP bolus); assay type: in vivo, male Sprague-Dawley rats; details: 3 mg/kg oral
T1 construct: Pre-cannulated male Sprague-Dawley rats (3 per compound evaluated) between 8 and 10 weeks of age were obtained from Harlan Laboratories; from tissue; host or cells: whole animal: conscious male Sprague-Dawley rats (Harlan Laboratories)
T1 sequence (P07861 1-750): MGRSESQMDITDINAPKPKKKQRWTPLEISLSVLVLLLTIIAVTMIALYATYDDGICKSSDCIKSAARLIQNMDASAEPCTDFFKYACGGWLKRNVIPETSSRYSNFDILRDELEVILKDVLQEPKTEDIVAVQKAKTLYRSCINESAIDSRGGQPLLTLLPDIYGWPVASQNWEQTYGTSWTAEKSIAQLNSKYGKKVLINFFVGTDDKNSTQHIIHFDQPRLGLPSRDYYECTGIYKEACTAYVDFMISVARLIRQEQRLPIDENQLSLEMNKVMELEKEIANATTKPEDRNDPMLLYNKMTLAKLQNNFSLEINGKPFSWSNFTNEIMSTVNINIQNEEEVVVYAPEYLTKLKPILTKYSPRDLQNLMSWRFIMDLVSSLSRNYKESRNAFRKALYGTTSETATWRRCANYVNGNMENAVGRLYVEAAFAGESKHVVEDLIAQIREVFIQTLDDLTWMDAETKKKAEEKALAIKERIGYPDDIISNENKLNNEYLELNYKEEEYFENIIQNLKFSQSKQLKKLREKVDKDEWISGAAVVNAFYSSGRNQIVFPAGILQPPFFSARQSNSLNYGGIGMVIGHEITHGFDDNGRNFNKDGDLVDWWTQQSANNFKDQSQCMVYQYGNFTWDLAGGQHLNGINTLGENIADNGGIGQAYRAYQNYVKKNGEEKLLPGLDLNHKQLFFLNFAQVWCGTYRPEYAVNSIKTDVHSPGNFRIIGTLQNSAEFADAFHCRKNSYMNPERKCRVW
Method: Appropriate masses of each test compound were added into a volume of vehicle (e.g. 5% sodium bicarbonate, 5% dextrose in H2O) such that the final concentration of each compound was appropriate to be dosed at 2 mL/kg. Note that a homogenous suspension was deemed to be acceptable for oral dosing.
Pre-cannulated male Sprague-Dawley rats (3 per compound evaluated) between 8 and 10 weeks of age were obtained from Harlan Laboratories (Indianapolis, Ind.). Rats received a single oral gavage of the dosing solution. The final dose was typically in the range of 3-30 mg/kg. Serial blood samples were harvested via the cannula implanted in the jugular vein at 3 minutes, 15 minutes, 35 minutes, 45 minutes, 1 hour, 2 hours, 4 hours, 6 hours, and 24 hours post-dose. Samples were collected into microtainer tubes containing EDTA as the anticoagulant and were processed to plasma by refrigerated centrifugation. Fifteen minutes prior to the 45 minute, 2 hour, 4 hour, 6 hour, and 24 hour samples, an IV bolus (30 μg/kg) of Atrial Natriuretic Peptide (ANP) was administered. […] Since binding of ANP to its receptor leads to activation of guanylyl cyclase and subsequent production of cyclic guanosine monophosphate (cGMP), the observation of elevated levels of cGMP (>20 nM) in plasma 15 minutes after the IV administration of the ANP bolus was interpreted as evidence of ongoing neprilysin inhibition. Elevated levels plasma cGMP levels 24 hours after dosing is an indicator of the duration pharmacologic effect, analogous to plasma clearance values as indicators of pharmacokinetic persistence.
Plasma samples were extracted with 3 volumes of MeCN containing a suitable internal standard. Extracts were reconstituted into 3 volumes of water containing 1% formic acid. Plasma cGMP and test compound concentrations were quantified in plasma samples by HPLC-coupled mass spectrometric detection.

[2] = IV/PO pharmacokinetic study in dogs; assay type: in vivo, male beagle dogs; parameters: AUC(0-t): concentration or dose not given beside the values; details: dog; for AUC(0-t): read-out: AUClast Mean
Method: Each rat or dog PK study began with formulation of the test compound. Appropriate masses of each test compound were added into a volume of vehicle (e.g. 5% sodium bicarbonate, 5% dextrose in H2O) such that the final concentration of each compound was appropriate to be dosed at 2 mL/kg. Although a homogenous suspension were acceptable for oral dosing, intravenous dosing solutions were sterile-filtered (0.2 μm) prior to dosing to ensure no particulates were administered.
In the dog study, male beagle dogs (3 per route) housed at Agilux Laboratories (Worcester, Mass.) and weighing between 7-12 kg received either a single oral gavage or a single intravenous (via indwelling catheter) dose of the dosing solution. The final dose was typically 0.1-2 mg/kg. Serial blood samples were harvested via direct venipuncture at 3 minutes, 15 minutes, 30 minutes, 1 hour, 2 hours, 4 hours, 6 hours, 8 hours, 12 hours, and 24 hours post-dose. All samples were collected manually into microtainer tubes containing EDTA as the anticoagulant and were processed to plasma by refrigerated centrifugation.
Plasma samples were extracted with 3 volumes of MeCN containing a suitable internal standard. Extracts were reconstituted into 3 volumes of water containing 1% formic acid, and analyzed via HPLC-coupled MS/MS. Plasma concentration-time data were analyzed using the Phoenix software (Pharsight Corp., St. Louis, Mo.) to calculate pharmacokinetic parameters.
Plasma clearance was determined from the intravenous arm of the study, and represents the rate at which plasma is cleared of drug. It is equal to the dose divided by the area under the plasma concentration-time curve. In addition to plasma clearance, it is also essential for an orally administered drug to reach efficacious systemic levels following oral delivery. Oral bioavailability is a measurement of plasma exposures following oral administration relative to exposures following intravenous administration.

cGMP Concentration 24 hours After Dosing Mean ([1]; rat plasma, 15 min after IV ANP bolus (30 μg/kg), average of three determinations): 112 nM
potentiation of cGMP 24 hr after dosing compared to Compounds C2, C3 and C4 ([1]; rat): more than 2 fold
CLlast Mean ([2]; IV): 4.83 mL/min/kg
AUC(0-t) ([2]; male, beagle, plasma, IV): 510 ng·h/mL
bioavailability ([2]; male, beagle, plasma, PO vs IV AUClast): > 100%
AUC(0-t) ([2]; male, beagle, plasma, PO): 530 ng·h/mL
SMILES: Cc1cnc(C(=O)N[C@H](Cc2ccc(-c3cc(Cl)ccc3F)cc2)C[C@@H](O)C(=O)O)o1 [Compound 1, (2R,4R)-5-(5′-Chloro-2′-fluorobiphenyl-4-yl)-2-hydroxy-4-[(5-methyloxazole-2-carbonyl)amino]pentanoic Acid]
